Legend:
DIPGX29 [1] = H3.3 K27M diffuse intrinsic pontine glioma line; experiment: maximal growth inhibition (yFin) relative to DMSO / staurosporine; higher = more efficacious
Outline: (§1)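 Patient-derived pHGG/DIPG cell lines and astrocyte controls were grown on 1% Geltrex-coated 384-well plates and exposed by pin tool to a 10-point threefold dilution series (mean top concentration 35 μM), in triplicate. Exposure was 7 days (iAstro 3 days) at 37 °C, 5% CO2. CellTiter-Glo luminescence was log2-transformed, normalised per plate to % activity between negative (solvent) and positive control wells, and pooled. EC50 and maximal response (yFin) come from the lowest-AICc three- or four-parameter log-logistic fit.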

DIPGX37 [2] = H3.3 K27M diffuse intrinsic pontine glioma line; experiment: as above
Outline: as §1

DIPGX7 [3] = H3.3 K27M diffuse intrinsic pontine glioma line; experiment: as above
Outline: as §1

DIPGX9 [4] = diffuse intrinsic pontine glioma line; experiment: as above
Outline: as §1

HABS [5] = astrocyte control; experiment: as above
Outline: as §1

HGGX2 [6] = paediatric high-grade glioma line; experiment: as above
Outline: as §1

HGGX39 [7] = paediatric high-grade glioma line; experiment: as above
Outline: as §1

HGGX42 [8] = H3.3 G34R paediatric high-grade glioma line; experiment: as above
Outline: as §1

HGGX6 [9] = H3.3 G34R paediatric high-grade glioma line; experiment: as above
Outline: as §1

SUDIPGIV [10] = diffuse intrinsic pontine glioma line; experiment: as above
Outline: as §1

SUDIPGVI = diffuse intrinsic pontine glioma line; experiment: as above
Outline: as §1

SUDIPGXIII [11] = diffuse intrinsic pontine glioma line; experiment: as above
Outline: as §1

SUDIPGXIX [12] = diffuse intrinsic pontine glioma line; experiment: as above
Outline: as §1

SUDIPGXVII [13] = diffuse intrinsic pontine glioma line; experiment: as above
Outline: as §1

SUDIPGXXI [14] = diffuse intrinsic pontine glioma line; experiment: as above
Outline: as §1

iAstro = astrocyte control; experiment: as above
Outline: as §1

DIPGX29 [15] = experiment: area under dose-response curve of % growth inhibition (log2 RLU vs DMSO / staurosporine), 1e-11 to 1e-4 M (% x log10 M); higher = more growth inhibition
Outline: (§2)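 On 1% Geltrex-coated 384-well plates, patient-derived pHGG/DIPG cell lines and astrocytes were treated in triplicate across 10 threefold dilutions (mean top concentration 35 μM) for 7 days, with iAstro treated for 3 days, at 37 °C, 5% CO2. Log2-transformed CellTiter-Glo luminescence was normalised per plate to % activity between solvent and positive controls. Area under the curve was obtained by the trapezoid rule from a log-logistic fit, or from a smoothing spline when that fit failed.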

DIPGX37 [16] = experiment: as above
Outline: as §2

DIPGX7 [17] = experiment: as above
Outline: as §2

DIPGX9 [18] = experiment: as above
Outline: as §2

HABS [19] = experiment: as above
Outline: as §2

HGGX2 [20] = experiment: as above
Outline: as §2

HGGX39 [21] = experiment: as above
Outline: as §2

HGGX42 [22] = experiment: as above
Outline: as §2

HGGX6 [23] = experiment: as above
Outline: as §2

SUDIPGIV [24] = experiment: as above
Outline: as §2

SUDIPGXIII [25] = experiment: as above
Outline: as §2

SUDIPGXIX [26] = experiment: as above
Outline: as §2

SUDIPGXVII [27] = experiment: as above
Outline: as §2

SUDIPGXXI [28] = experiment: as above
Outline: as §2

| SMILES | maximal growth inhibition (DIPGX29 [1]) [%] | maximal growth inhibition (DIPGX37 [2]) [%] | maximal growth inhibition (DIPGX7 [3]) [%] | maximal growth inhibition (DIPGX9 [4]) [%] | maximal growth inhibition (HABS [5]) [%] | maximal growth inhibition (HGGX2 [6]) [%] | maximal growth inhibition (HGGX39 [7]) [%] | maximal growth inhibition (HGGX42 [8]) [%] | maximal growth inhibition (HGGX6 [9]) [%] | maximal growth inhibition (SUDIPGIV [10]) [%] | maximal growth inhibition (SUDIPGVI) [%] | maximal growth inhibition (SUDIPGXIII [11]) [%] | maximal growth inhibition (SUDIPGXIX [12]) [%] | maximal growth inhibition (SUDIPGXVII [13]) [%] | maximal growth inhibition (SUDIPGXXI [14]) [%] | maximal growth inhibition (iAstro) [%] | area under dose-response curve (DIPGX29 [15]) | area under dose-response curve (DIPGX37 [16]) | area under dose-response curve (DIPGX7 [17]) | area under dose-response curve (DIPGX9 [18]) | area under dose-response curve (HABS [19]) | area under dose-response curve (HGGX2 [20]) | area under dose-response curve (HGGX39 [21]) | area under dose-response curve (HGGX42 [22]) | area under dose-response curve (HGGX6 [23]) | area under dose-response curve (SUDIPGIV [24]) | area under dose-response curve (SUDIPGXIII [25]) | area under dose-response curve (SUDIPGXIX [26]) | area under dose-response curve (SUDIPGXVII [27]) | area under dose-response curve (SUDIPGXXI [28]) |
| --- | --- | --- | --- | --- | --- | --- | --- | --- | --- | --- | --- | --- | --- | --- | --- | --- | --- | --- | --- | --- | --- | --- | --- | --- | --- | --- | --- | --- | --- | --- |
| C[C@@]12OC(=O)[C@]1([C@@H](O)[C@@H]1C=CCCC1)NC(=O)[C@@H]2CCCl [MARIZOMIB] | 32.8 | 99.7 | 101 | 101 | 54.9 | 98.7 | 96.6 | 62.8 | 55.2 | 119 | 103 | 28.3 | 94.2 | 40.4 | 109 | 89.6 | 100 | 254 | 251 | 302 | 149 | 337 | 241 | 163 | 135 | 407 | 75.8 | 229 | 108 | 422 |
| Nc1ccccc1NC(=O)c1ccc(CNc2nccc(-c3cccnc3)n2)cc1 [MOCETINOSTAT] | 78.5 | 96 | 104 | 103 | 94.6 | 96.5 | 96.8 | 78 | 84.8 | 104 | 97.2 | 74.1 | 100 | 93 | 126 | 38.2 | 144 | 146 | 147 | 232 | 135 | 165 | 133 | 115 | 129 | 175 | 117 | 147 | 155 | 319 |
| O=C(Nc1ccc([N+](=O)[O-])cc1Cl)c1cc(Cl)ccc1O [NICOLSAMIDE] | 78.2 | 81.9 | 86 | 94 | 82.4 | 93.8 | 96.9 | 87.9 | 71.9 | 92.4 | 74.1 | 84.2 | 89 | 88.7 | 110 | 34.7 | 123 | 142 | 153 | 150 | 116 | 119 | 115 | 129 | 85.2 | 146 | 167 | 142 | 141 | 232 |
| CCNC(=O)c1noc(-c2cc(C(C)C)c(O)cc2O)c1-c1ccc(CN2CCOCC2)cc1 [NVP-AUY922] | 80.4 | 82.2 | 48.5 | 84.4 | 86.9 | 49.9 | 80.3 | 34.4 | 29.6 | 55.9 | 35.2 | 61.3 | 76.3 | 63.9 | 115 | 51 | 204 | 285 | 94.5 | 294 | 285 | 180 | 275 | 147 | 99.4 | 183 | 213 | 274 | 218 | 318 |
| CCCS(=O)(=O)c1nc(NC2CC2)cc(-c2ccc3c(ccn3C3CC(C)(C)NC(C)(C)C3)c2)n1 [NVS-1] | 82.2 | 79.6 | 95.1 | 88.9 | 86.9 | 86.7 | 82.8 | 88.2 | 79.3 | 90.5 | 88.4 | 88.4 | 90.7 | 88.4 | 104 | 83.2 | 172 | 159 | 166 | 152 | 124 | 169 | 130 | 185 | 145 | 138 | 163 | 174 | 154 | 140 |
| COC1=CC(c2cc3ccccc3[nH]2)=N/C1=C\c1[nH]c(C)cc1C [OBATOCLAX] | 126 | 128 | 129 | 131 | 128 | 115 | 124 | 119 | 123 | 131 | 128 | 108 | 143 | 128 | 127 | 101 | 174 | 167 | 219 | 177 | 138 | 217 | 165 | 196 | 136 | 177 | 128 | 216 | 128 | 280 |
| C[C@@H]1O[C@@H](O[C@H]2C[C@@H](O)[C@]3(CO)[C@H]4[C@H](O)C[C@]5(C)[C@@H](C6=CC(=O)OC6)CC[C@]5(O)[C@@H]4CC[C@]3(O)C2)[C@H](O)[C@H](O)[C@H]1O [OUABAIN] | 53.4 | 46.7 | 100 | 70.1 | 69.1 | 63.9 | 75.1 | 53.3 | 64.9 | 103 | 60.1 | 46.9 | 83.6 | 73.5 | 90.6 | 47.1 | 175 | 126 | 279 | 168 | 133 | 173 | 218 | 127 | 173 | 284 | 107 | 202 | 186 | 251 |
| Cc1[nH]c2ccccc2c1CCNCc1ccc(/C=C/C(=O)NO)cc1 [PANOBINOSTAT] | 76.5 | 76.5 | 89 | 90.7 | 95.2 | 90 | 75.6 | 95.5 | 73.9 | 86.4 | 86.9 | 93.9 | 106 | 90.9 | 110 | 48 | 228 | 220 | 243 | 287 | 272 | 253 | 212 | 282 | 216 | 252 | 195 | 293 | 244 | 355 |
| OC1(c2ccc(Cl)c(C(F)(F)F)c2)CCN(CCCC(c2ccc(F)cc2)c2ccc(F)cc2)CC1 [PENFLURIDOL] | 94.8 | 93.5 | 102 | 105 | 88.6 | 98.9 | 91 | 98.5 | 84.9 | 97.2 | 98.5 | 92.8 | 97.4 | 95.6 | 106 | 85.2 | 135 | 126 | 163 | 147 | 78.4 | 175 | 113 | 160 | 104 | 152 | 110 | 149 | 126 | 201 |
| Cc1ccc(C(=O)Nc2ccc(CN3CCN(C)CC3)c(C(F)(F)F)c2)cc1C#Cc1cnc2cccnn12 [PONATINIB] | 104 | 101 | 101 | 94.2 | 103 | 99.6 | 99.3 | 99 | 97.4 | 100 | 97.8 | 96 | 99.8 | 101 | 97.2 | 95 | 134 | 141 | 155 | 252 | 194 | 163 | 148 | 164 | 155 | 102 | 132 | 132 | 125 | 345 |
| O=C(Nc1ccccc1-c1cn2c(CN3CCNCC3)csc2n1)c1cnc2ccccc2n1 [SRT1720] | 94.6 | 94.6 | 102 | 103 | 98.3 | 99.1 | 95.5 | 102 | 90.5 | 104 | 93.9 | 94.6 | 104 | 99.2 | 105 | 91.6 | 110 | 113 | 143 | 146 | 91.1 | 158 | 103 | 152 | 102 | 146 | 122 | 139 | 96.6 | 178 |
| CCN(CC)CCNC(=O)c1c(C)[nH]c(/C=C2\C(=O)Nc3ccc(F)cc32)c1C [SUNITINIB] | 103 | 101 | 116 | 117 | 122 | 108 | 105 | 112 | 107 | 119 | 108 | 113 | 129 | 120 | 115 | 97.5 | 97.9 | 103 | 123 | 129 | 122 | 141 | 100 | 193 | 95.1 | 99.2 | 144 | 135 | 128 | 176 |
